Earlier results on 48 compounds are cited in paper PMC6376154 (International Journal for Parasitology: Drugs and Drug …, 2019).

In the data set the test system is P. falciparum 3D7 asexual blood stage. The following applies: cited from earlier work.
Setting [1] is: MMV Malaria Box data sheet (supplement mmc2.xls), ref MMV data sheet, read-out: EC50_nM.
Where [2] appears, read: MMV Malaria Box data sheet, ref MMV data sheets, read-out: EC50_nM.
Setting [3] is: MMV Malaria Box sheet, ref MMV data sheets, read-out: EC50_nM.
The mark [4] stands for this setting: MMV Malaria Box sheet, ref MMV data sheets.
The mark [5] stands for this setting: source GNF, ref ChEMBL_NTD, read-out: CHEMBL EC50.
The mark [6] stands for this setting: MMV Malaria Box data sheet, ref MMV data sheets.
Where [7] appears, read: source GSK, ref ChEMBL_NTD, read-out: CHEMBL EC50.
Where [8] appears, read: MMV Malaria Box data sheet (supplement mmc2.xls), ref MMV data sheet.
[9] abbreviates: value(s) per source (GSK, GNF, StJude), separated by semicolon, ref ChEMBL-NTD, read-out: CHEMBL EC50.
Setting [10] is: source StJude, ref ChEMBL_NTD, read-out: CHEMBL EC50.
Where [11] appears, read: ChEMBL-NTD value per source (GNF, GSK, StJude), several values in a cell follow the order of the sources, read-out: CHEMBL EC50.

Read-outs that look alike come from different tables or passages of the source.

Regarding `Cc1cc(NC(=O)c2cccc(C(F)(F)F)c2)n(-c2nc(-c3ccc4c(c3)OCO4)cs2)n1` [MMV396681], under setting [1], the EC50 is 959 nM.
On to `C[n+]1c2ccccc2nc2ccc(NCCO)cc21` [MMV396693], for which the EC50 under setting [2] is 296 nM.
Consider `CCN(CC)CCNc1ncnc2c1[nH]c1ccc(Cl)cc12` [MMV396703], for which the EC50 under setting [2] was 406 nM.
`CN1CCN(c2ncnc3c2[nH]c2ccc(Cl)cc23)CC1` [MMV396704]: under setting [3], the EC50 was 1190 nM.
For `COc1cccc(Cn2c(Oc3ccccc3)nc3c2c(=O)n(C)c(=O)n3C)c1` [MMV396705], under setting [3], the EC50 was 1390 nM.
On to `CC1(c2ccccc2)Nc2ccccc2-c2nc3ccccc3n21` (centres unmarked) [MMV396715], for which the EC50 under setting [3] was 1730 nM.
`COc1cccc(C2(C)Nc3ccccc3-c3nc4ccccc4n32)c1` (centres unmarked) [MMV396719]: under setting [1], the EC50 is 1150 nM.
As for `OC(CNCC1CCCO1)Cn1c2ccc(Cl)cc2c2cc(Cl)ccc21` (centres unmarked) [MMV396736], under setting [1], the EC50 is 1060 nM.
With `CC(C)CNC(=O)c1c(N)n(CCc2ccccc2F)c2nc3ccccc3nc12` [MMV396744], the EC50 under setting [1] was 832 nM.
Consider `COc1ccc2c(c1)C1(Nc3ccccc3-c3nc4ccccc4n31)C(=O)N2` (centres unmarked) [MMV396749], for which, under setting [3], the EC50 is 928 nM.
For the compound `CC(C)(C)CC(C)(C)NCC(O)COc1ccc(Cl)cc1Cl` (centres unmarked) [MMV396794], the EC50 under setting [1] is 1160 nM.
`COc1ccc(-c2c(C)nn3c(N)c(C#N)cnc23)cc1OC` [MMV396797]: the EC50 under setting [2] was 477 nM.
As for `Cc1cccc(-n2ncc3c(=O)[nH]c(-n4nc(C)cc4NC(=O)c4cc5ccccc5o4)nc32)c1` [MMV403679], under setting [1], the EC50 was 929 nM.
Take `CCN(CC)CCCNc1ccnc2cc3ccccc3cc12` [MMV665783]: the “percent_inh @ 5 uM” value under setting [4] is 90%. Further, the EC50 under setting [5] was 33.8 nM.
In the case of `CC(C)(C)c1ccc(O)c(CNC2CCCCC2)c1` [MMV665785], under setting [6], the “percent_inh @ 5 uM” value was 96%. The EC50 reads like this: under setting [2], 161 nM; under setting [5], 250 nM; under setting [7], 264 nM.
`O=c1cc(NC2CCN(CCCc3ccccc3)CC2)c2cc(Cl)ccc2o1` [MMV665786]: under setting [4], the “percent_inh @ 5 uM” value is listed as 97%. In addition, the EC50 was 846 nM under setting [3] and 408 nM under setting [5].
For the compound `CC(NCc1ccccc1)c1cc(Cl)ccc1O` (centres unmarked) [MMV665789], the “percent_inh @ 5 uM” value under setting [8] is on record as 95%. Also, the EC50 under setting [1] is 603 nM and the EC50 under setting [9] is 592 nM.
`FC(F)(F)c1cccc(Nc2nc3ccccc3nc2Nc2cccc(C(F)(F)F)c2)c1` [MMV665794]: the “percent_inh @ 5 uM” value under setting [4] is recorded as 99%. Also, the EC50 runs as follows: under setting [3], 313 nM; under setting [7], 137 nM.
On to `CCOc1cc(Br)c(C(C)NC(=O)c2cccc(OC)c2)cc1OCC` (centres unmarked) [MMV665796], for which, under setting [8], the “percent_inh @ 5 uM” value is given as 96%. The EC50 is 1430 nM under setting [1] and 168 nM under setting [9].
As to `CCCCOC(=O)c1ccc(Nc2cc(C)nc3ccc(OC)cc23)cc1` [MMV665797], under setting [4], the “percent_inh @ 5 uM” value is given as 99%. Further, the EC50 is 584 nM under setting [3] and 640 nM under setting [7].
Regarding `FC(F)(F)c1cccc(Nc2nc(-c3ccccc3)nc3ncccc23)c1` [MMV665798], the “percent_inh @ 5 uM” value under setting [8] is listed as 74%. Further, the EC50 under setting [9] is 802 nM.
Consider `COc1ccc(C(=O)Nc2ccc(Cl)cc2C(=O)Nc2ccncc2)cc1` [MMV665799], for which the “percent_inh @ 5 uM” value under setting [8] is recorded as 93%. Further, the EC50 under setting [9] was 822 nM.
With `CCOc1cc(Cl)c(C(C)NC(=O)c2cccc(OC)c2)cc1OCC` (centres unmarked) [MMV665803], the “percent_inh @ 5 uM” value under setting [8] was 98%. Besides, the EC50 under setting [1] is 728 nM and the EC50 under setting [9] was 956 nM.
For the compound `CCOc1ccc(-c2nonc2NC(=O)c2cccc(C)c2)cc1OCC` [MMV665805], the “percent_inh @ 5 uM” value under setting [6] is 86%. For the same compound, the EC50 runs as follows: under setting [2], 117 nM; under setting [10], 61.9 nM.
Turning to `Cc1c(C)n(CC(O)CNC2CCCCC2C)c2ccccc12` (centres unmarked) [MMV665806], the “percent_inh @ 5 uM” value under setting [4] was 96%. Further, the EC50 is, setting by setting: under setting [3], 769 nM; under setting [10], 527 nM.
For the compound `O=C(Nc1cccc(C(F)(F)F)c1)c1cc(Cl)ccc1O` [MMV665807], under setting [8], the “percent_inh @ 5 uM” value was 93%. Besides, the EC50 under setting [9] is 973 nM.
For the compound `Oc1ccc(Br)cc1CN1CCN(Cc2ccc(Cl)cc2)CC1` [MMV665809], the EC50 under setting [11] was 1480 nM.
As for `CCc1ccc(CNCC(O)c2ccccc2)cc1` (centres unmarked) [MMV665812], the EC50 under setting [11] is 2170 nM.
Turning to `CCOC(=O)c1cnc2ccc(OC)cc2c1NCc1ccccc1` [MMV665813], the EC50 under setting [11] was 2770 nM.
`CC(C)(C)CC(C)(C)NCC(O)COc1ccc2c(c1)CCC2` (centres unmarked) [MMV665817]: under setting [6], the “percent_inh @ 5 uM” value is 78%. The EC50 under setting [10] is 4420 nM.
Take `Cn1c(C(=O)c2cccc3ccccc23)nc2ccccc21` [MMV665824]: under setting [11], the EC50 was 6.92 nM.
Consider `COc1cccc(NC(=O)Cn2c(C)c(C#N)c3ccccc32)c1` [MMV665826], for which the “percent_inh @ 5 uM” value under setting [8] is recorded as 95%. The EC50 under setting [1] was 1090 nM.
For the compound `CCOC(=O)c1cn(CC)c2cc(N3CCCCC3)c(F)cc2c1=O` [MMV665827], the “percent_inh @ 5 uM” value under setting [6] is listed as 100%. For the same compound, the EC50 under setting [2] is 119 nM, the EC50 under setting [5] was 166 nM and the EC50 under setting [7] was 125 nM.
Regarding `CC1CC2=C(CC1CNCCCN(C)C)C(C)(C)CCC2` (centres unmarked) [MMV665830], the EC50 under setting [11] was 250 nM.
As for `CCOC(=O)c1c(NC(=O)c2ccccc2)sc2c(O)c(CN(CC)CC)ccc12` [MMV665831], the “percent_inh @ 5 uM” value under setting [6] was 96%. The EC50 under setting [2] was 205 nM, the EC50 under setting [5] was 267 nM and the EC50 under setting [7] is 969 nM.
For `O=C(Nc1ccc(-c2nc3ccccc3[nH]2)cc1)c1ccc(Cl)c(Cl)c1` [MMV665840], the EC50 under setting [11] was 523 nM.
With `Oc1c2c(nc3ccccc13)CCCC2` [MMV665843], under setting [4], the “percent_inh @ 5 uM” value is reported as 82%. Further, the EC50 under setting [5] is 628 nM.
Regarding `Oc1ccc(Cl)cc1CNc1nc2ccccc2[nH]1` [MMV665850], under setting [6], the “percent_inh @ 5 uM” value is listed as 95%. Besides, the EC50 under setting [5] was 921 nM.
As for `O=C(Nc1ccc(Cl)c(Cl)c1)Nc1ccc(Cl)c(Cl)c1` [MMV665852], under setting [11], the EC50 was 1030 nM.
Turning to `CCOc1c(Cl)cc(CNC(C)C(O)c2ccccc2)cc1OC` (centres unmarked) [MMV665857], the “percent_inh @ 5 uM” value under setting [8] is on record as 98%. For the same compound, the EC50 under setting [9] was 1650 nM.
Regarding `CCCCNc1nc(NC(C)(C)C)nc(NC(C)(C)C)n1` [MMV665864], the EC50 under setting [11] is 2160 nM.
For `Cc1cc(Nc2ccc(C)c(Cl)c2)n2nc(C(F)(F)F)nc2n1` [MMV665874], under setting [6], the “percent_inh @ 5 uM” value is on record as 98%. Besides, the EC50 reads like this: under setting [2], 6.71 nM; under setting [7], 15.8 nM.
As to `Cn1c(=O)n(C)c2cc(CNCCNc3ccnc4cc(Cl)ccc34)ccc21` [MMV665875], the EC50 under setting [11] was 140 nM.
Turning to `CCC(c1ccccc1)c1nn2c(-c3cccs3)nnc2s1` (centres unmarked) [MMV665876], under setting [6], the “percent_inh @ 5 uM” value is reported as 99%. In addition, the EC50 under setting [2] is 259 nM and the EC50 under setting [7] was 167 nM.
With `COc1cccc(NC(=O)[C@H](C(C)C)n2c(=O)[nH]c3ccccc3c2=O)c1` [MMV665878], under setting [6], the “percent_inh @ 5 uM” value was 99%. Further, the EC50 is 139 nM under setting [2] and 266 nM under setting [7].
Take `CC(C)(C)C(=O)Nc1ccc(C(=O)Nc2cccc(-c3nc4ccccc4[nH]3)c2)cc1` [MMV665879]: the “percent_inh @ 5 uM” value under setting [8] is 91%. Besides, the EC50 under setting [9] is 282 nM.
On to `COc1ccc(CNC(=O)c2cc3c(=O)n4ccccc4nc3n(CCc3ccccc3)c2=N)cc1` [MMV665881], for which, under setting [11], the EC50 was 330 nM.
Regarding `OC(CNC1CCCCC1)Cn1c2ccc(I)cc2c2cc(I)ccc21` (centres unmarked) [MMV665882], under setting [11], the EC50 was 337 nM.
